Results: patent US11414395B2, “Heterocyclic compounds as modulators of mGluR7” (PRAGMA Therapeutics, priority 2017, dated 2022)

Each compound was assayed against human mGluR7 (Homo sapiens (Human), UniProt Q14831) (assay: Inositol monophosphate production assay (IP1 assay), inhibition of L-AP4 response). Conditions: mean IC50 from at least two independent experiments; HEK293 cells transiently transfected with mGluR7, Gqtop and EAAC1; IP1 production vs EC80 L-AP4.
Assay type: cell-based
Description: Inositol Monophosphate Production Assay (IP1 Assay):
HEK293 cells were transiently transfected with mGluR7 by electroporation and seeded in a poly-ornithine coated 96-well plate at the density of 150 000 cells/well. To allow the monitoring of receptor activity through measurements of inositol monophosphate (IP1) production, mGluR7 was transfected with a chimeric Gq/Gi protein (Gqtop). and was also co-transfected with EAAC1, a glutamate transporter, to avoid influence of extracellular glutamate. Cells were cultured in Dulbecco's Modified Eagle Medium (DMEM, Invitrogen, Cergy Pontoise, France), supplemented with 10% of Fetal Bovine Serum (FBS). Medium was changed by Glutamax™ (Invitrogen, Cergy Pontoise, France) to reduce extracellular glutamate concentration 3 hours before stimulation
IP1 production was determined using the IP-One HTRF kit (CisBio Bioassays), a competitive immunoassay using cryptate-labeled anti-IP1 antibody and d2-labeled IP, according to the manufacturer's recommendations. All points were realized in triplicate.
Data were analyzed with Prism 6 software (GraphPadSoftware, San Diego, Calif.). Typically, in each experiment, a four-parameter concentration-response curve equation was used to fit data and potency (IC50) is estimated as logarithms (log IC50). Data were calculated as % of the control mGluR7 agonist L-AP4 response, defined as the response that is generated upon addition of an EC80-equivalent concentration of L-AP4.
The Table 2 below represents the mean IC50 obtained from at least two independent experiments.

Chain of human mGluR7 (Q14831 35-915): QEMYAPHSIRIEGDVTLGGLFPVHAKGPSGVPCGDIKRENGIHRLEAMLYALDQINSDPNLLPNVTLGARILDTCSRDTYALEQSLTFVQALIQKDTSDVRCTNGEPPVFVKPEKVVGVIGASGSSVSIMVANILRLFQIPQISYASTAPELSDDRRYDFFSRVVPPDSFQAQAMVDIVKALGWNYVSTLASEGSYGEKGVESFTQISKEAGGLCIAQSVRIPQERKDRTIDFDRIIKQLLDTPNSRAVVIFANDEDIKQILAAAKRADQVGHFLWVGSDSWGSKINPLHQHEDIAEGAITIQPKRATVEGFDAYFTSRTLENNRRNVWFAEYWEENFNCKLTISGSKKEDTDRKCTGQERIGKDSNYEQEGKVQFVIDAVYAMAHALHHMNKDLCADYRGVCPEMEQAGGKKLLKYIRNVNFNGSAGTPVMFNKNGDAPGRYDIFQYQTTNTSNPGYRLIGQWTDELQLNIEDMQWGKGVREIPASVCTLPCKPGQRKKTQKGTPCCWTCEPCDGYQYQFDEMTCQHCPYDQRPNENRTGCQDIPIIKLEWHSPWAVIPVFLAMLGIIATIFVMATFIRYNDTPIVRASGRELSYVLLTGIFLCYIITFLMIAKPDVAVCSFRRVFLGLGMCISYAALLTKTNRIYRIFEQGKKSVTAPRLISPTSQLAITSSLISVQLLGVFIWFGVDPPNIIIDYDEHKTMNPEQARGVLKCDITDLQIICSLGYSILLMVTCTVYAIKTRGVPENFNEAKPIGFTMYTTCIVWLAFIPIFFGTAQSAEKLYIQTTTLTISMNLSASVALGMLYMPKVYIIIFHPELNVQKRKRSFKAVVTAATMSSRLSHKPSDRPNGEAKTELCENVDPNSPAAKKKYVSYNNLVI

SMILES | IC50 [nM]
COCc1ccc(-n2ncc3c(c2=O)CCC(c2ccc(C)cc2C)C3)nc1 (stereo not drawn) [Example 27, 6-(2,4-dimethylphenyl)-2-(5-(methoxymethyl)pyridin-2-yl)-5,6,7,8-tetrahydrophthalazin-1(2H)-one] | < 500
COc1cc(C)ccc1C1CCc2c(cnn(-c3ccccn3)c2=O)C1 (stereo not drawn) [Example 67, 6-(2-methoxy-4-methylphenyl)-2-(pyridin-2-yl)-5,6,7,8-tetrahydrophthalazin-1(2H)-one] | 500 to 1000
Cc1ccc(C2CCc3c(cnn(-c4ccccn4)c3=O)C2)c(C)c1 (single isomer, unassigned; (-)) [Example 4, (−)-6-(2,4-dimethyl-phenyl)-2-pyridin-2-yl-5,6,7,8-tetrahydro-2H-phthalazin-1-one] | 1000 to 30000
Cc1ccc(C2CCc3c(cnn(-c4ccc(Cl)cn4)c3=O)C2)c(C)c1 (stereo not drawn) [Example 6, 6-(2,4-dimethylphenyl)-2-(5-chlororopyridin-2-yl)-5,6,7,8-tetrahydro-phthalazin-1(2H)-one] | < 500
Cc1ccc(C2CCc3c(cnn(-c4ccc(O)cn4)c3=O)C2)c(C)c1 (stereo not drawn) [Example 25, 6-(2,4-dimethylphenyl)-2-(5-hydroxypyridin-2-yl)-5,6,7,8-tetrahydrophthalazin-1(2H)-one] | < 500
COc1ccccc1C1CCc2c(cnn(-c3ccccn3)c2=O)C1 (stereo not drawn) [Example 58, 6-(2-methoxyphenyl)-2-(pyridin-2-yl)-5,6,7,8-tetrahydrophthalazin-1(2H)-one] | < 500
COc1ccc(C)cc1C1CCc2c(cnn(-c3ncccn3)c2=O)C1 (stereo not drawn) [Example 76, 6-(2-methoxy-5-methylphenyl)-2-(pyrimidin-2-yl)-5,6,7,8-tetrahydrophthalazin-1(2H)-one] | < 500
Cc1ccc(C2CCc3c(cnn(-c4ncc(Cl)cn4)c3=O)C2)c(C)c1 (stereo not drawn) [Example 51, 2-(5-chloropyrimidin-2-yl)-6-(2,4-dimethylphenyl)-5,6,7,8-tetrahydrophthalazin-1(2H)-one] | < 500
Cc1ccc(C2CCc3c(cnn(-c4cc(F)ccn4)c3=O)C2)c(C)c1 (stereo not drawn) [Example 11, 6-(2,4-dimethylphenyl)-2-(4-fluoropyridin-2-yl)-5,6,7,8-tetrahydrophthalazin-1(2H)-one] | < 500
COc1ccnc(-n2ncc3c(c2=O)CCC(c2ccc(C)cc2C)C3)c1 (stereo not drawn) [Example 15, 6-(2,4-dimethylphenyl)-2-(4-methoxypyridin-2-yl)-5,6,7,8-tetrahydrophthalazin-1(2H)-one] | < 500
COc1ccc(Cl)c(C2CCc3c(cnn(-c4ncccn4)c3=O)C2)c1 (stereo not drawn) [Example 75, 6-(2-chloro-5-methoxyphenyl)-2-(pyrimidin-2-yl)-5,6,7,8-tetrahydrophthalazin-1(2H)-one] | < 500
Cc1ccc(C2CCc3c(cnn(-c4ccccn4)c3=O)C2)c(C)c1 (stereo not drawn) [Example 1, 6-(2,4-dimethyl-phenyl)-2-pyridin-2-yl-5,6,7,8-tetrahydro-2H-phthalazin-1-one] | < 500
Cc1ccc(C2CCc3c(cnn(-c4ncc(F)cn4)c3=O)C2)c(C)c1 (stereo not drawn) [Example 54, 6-(2,4-dimethylphenyl)-2-(5-fluoropyrimidin-2-yl)-5,6,7,8-tetrahydrophthalazin-1(2H)-one] | < 500
Cc1ccc(C2CCc3c(cnn(-c4nccs4)c3=O)C2)c(C)c1 (stereo not drawn) [Example 32, 6-(2,4-dimethylphenyl)-2-(thiazol-2-yl)-5,6,7,8-tetrahydrophthalazin-1(2H)-one] | 500 to 1000
Cc1ccc(C2CCc3c(cnn(-c4ncc(CN5CCOCC5)cn4)c3=O)C2)c(C)c1 (stereo not drawn) [Example 57, 6-(2,4-dimethylphenyl)-2-(5-(morpholinomethyl)pyrimidin-2-yl)-5,6,7,8-tetrahydrophthalazin-1(2H)-one] | < 500
Cc1ccc(C2CCc3c(cnn(-c4cn(C)cn4)c3=O)C2)c(C)c1 (stereo not drawn) [Example 34, 6-(2,4-dimethylphenyl)-2-(1-methyl-1H-imidazol-4-yl)-5,6,7,8-tetrahydrophthalazin-1(2H)-one] | 1000 to 30000
Cc1ccc(C2CCc3c(cnn(-c4ccncc4)c3=O)C2)c(C)c1 (stereo not drawn) [Example 50, 6-(2,4-dimethylphenyl)-2-(pyridin-4-yl)-5,6,7,8-tetrahydrophthalazin-1(2H)-one] | < 500
Cc1ccc(C2CCc3c(cnn(-c4cscn4)c3=O)C2)c(C)c1 (stereo not drawn) [Example 33, 6-(2,4-dimethylphenyl)-2-(thiazol-4-yl)-5,6,7,8-tetrahydrophthalazin-1(2H)-one] | < 500
COc1c(C)cccc1C1CCc2c(cnn(-c3ncccn3)c2=O)C1 (stereo not drawn) [Example 71, 6-(2-methoxy-3-methylphenyl)-2-(pyrimidin-2-yl)-5,6,7,8-tetrahydrophthalazin-1(2H)-one] | 500 to 1000
Cc1ccc(C2CCc3c(cnn(-c4ncccc4Cl)c3=O)C2)c(C)c1 (stereo not drawn) [Example 8, 2-(3-chloropyridin-2-yl)-6-(2,4-dimethylphenyl)-5,6,7,8-tetrahydrophthalazin-1(2H)-one] | < 500

The next lines start with the values.

IC50 [nM] | SMILES
< 500 | Cc1c(OC2CC2)cccc1C1CCc2c(cnn(-c3ncccn3)c2=O)C1 (stereo not drawn) [Example 104, 6-(3-cyclopropoxy-2-methylphenyl)-2-(pyrimidin-2-yl)-5,6,7,8-tetrahydrophthalazin-1(2H)-one]
1000 to 30000 | Cc1ccc(C2Cc3cnn(-c4ccccn4)c(=O)c3C2)c(C)c1 (stereo not drawn) [Example 121, 6-(2,4-dimethylphenyl)-2-(pyridin-2-yl)-2,5,6,7-tetrahydro-1H-cyclopenta[d]-pyridazin-1-one]
500 to 1000 | COCc1cccc(C2CCc3c(cnn(-c4ncccn4)c3=O)C2)c1 (stereo not drawn) [Example 83, 6-(3-(methoxymethyl)phenyl)-2-(pyrimidin-2-yl)-5,6,7,8-tetrahydrophthalazin-1(2H)-one]
< 500 | Cc1cc(C)c(C2CCc3c(cnn(-c4ncccn4)c3=O)C2)c(C)c1 (stereo not drawn) [Example 89, 6-mesityl-2-(pyrimidin-2-yl)-5,6,7,8-tetrahydrophthalazin-1(2H)-one]
500 to 1000 | COc1ccc(C)c(C2CCc3c(cnn(-c4ncc(C5CC5)cn4)c3=O)C2)c1 (stereo not drawn) [Example 107, 2-(5-cyclopropylpyrimidin-2-yl)-6-(5-methoxy-2-methylphenyl)-5,6,7,8-tetrahydrophthalazin-1(2H)-one]
< 500 | COc1cccc(C2CCc3c(cnn(-c4ncccn4)c3=O)C2)c1F (stereo not drawn) [Example 79, 6-(2-fluoro-3-methoxyphenyl)-2-(pyrimidin-2-yl)-5,6,7,8-tetrahydrophthalazin-1(2H)-one]
< 500 | O=c1c2c(cnn1-c1ncccn1)CC(c1cccc(OC3CC3)c1)CC2 (stereo not drawn) [Example 85, 6-(3-cyclopropoxyphenyl)-2-(pyrimidin-2-yl)-5,6,7,8-tetrahydrophthalazin-1(2H)-one]
500 to 1000 | Cc1c(OCC2CC2)cccc1C1CCc2c(cnn(-c3ncccn3)c2=O)C1 (stereo not drawn) [Example 102, 6-(3-(cyclopropylmethoxy)-2-methylphenyl)-2-(pyrimidin-2-yl)-5,6,7,8-tetrahydrophthalazin-1(2H)-one]
< 500 | COc1cccc(C2CCc3c(cnn(-c4ncc(OCCO)cn4)c3=O)C2)c1C (stereo not drawn) [Example 119, 2-(5-(2-hydroxyethoxy)pyrimidin-2-yl)-6-(3-methoxy-2-methylphenyl)-5,6,7,8-tetrahydrophthalazin-1(2H)-one]
< 500 | O=c1c2c(cnn1-c1ncccn1)CC(c1cccc(OC3CC3)c1Cl)CC2 (single isomer, unassigned; (-)) [Example 130, (−)-6-(2-chloro-3-cyclopropoxyphenyl)-2-(pyrimidin-2-yl)-5,6,7,8-tetrahydrophthalazin-1(2H)-one]
< 500 | Cc1ccc(C2CCc3c(cnn(-c4ccc(N5CCOCC5)cn4)c3=O)C2)c(C)c1 (stereo not drawn) [Example 114, 6-(2,4-dimethylphenyl)-2-(5-morpholinopyridin-2-yl)-5,6,7,8-tetrahydrophthalazin-1(2H)-one]
< 500 | Cc1c(OC2CC2)cccc1C1CCc2c(cnn(-c3ncc(Br)cn3)c2=O)C1 (stereo not drawn) [Example 126, 2-(5-bromopyrimidin-2-yl)-6-(3-cyclopropoxy-2-methylphenyl)-5,6,7,8-tetrahydrophthalazin-1(2H)-one]
500 to 1000 | COc1cccc(C2CCc3c(cnn(-c4ncc(C)cn4)c3=O)C2)c1Cl (single isomer, unassigned; (+)) [Example 135, (+)-6-(2-chloro-3-methoxyphenyl)-2-(5-methylpyrimidin-2-yl)-5,6,7,8-tetrahydrophthalazin-1(2H)-one]
1000 to 30000 | Cc1cnc(-n2ncc3c(c2=O)CCC(c2cccc(OC4CC4)c2C)C3)nc1 (single isomer, unassigned; (+)) [Example 133, (+)-6-(3-cyclopropoxy-2-methylphenyl)-2-(5-methylpyrimidin-2-yl)-5,6,7,8-tetrahydrophthalazin-1(2H)-one]
1000 to 30000 | Cc1c(OCc2ccccc2)cccc1C1CCc2c(cnn(-c3ncccn3)c2=O)C1 (stereo not drawn) [Example 106, 6-(3-(benzyloxy)-2-methylphenyl)-2-(pyrimidin-2-yl)-5,6,7,8-tetrahydrophthalazin-1(2H)-one]
< 500 | O=c1c2c(cnn1-c1ncccn1)CC(c1cccc(OC3CC3)c1Cl)CC2 (stereo not drawn) [Example 91, 6-(2-chloro-3-cyclopropoxyphenyl)-2-(pyrimidin-2-yl)-5,6,7,8-tetrahydrophthalazin-1(2H)-one]
